Laboratory results reported in patent US9611292B2, “Peptide inhibitors of serotonin 5-HT2c receptors:PTEN interaction” (THE BOARD OF REGENTS OF THE UNIVERSITY OF TEXAS SYSTEM, priority 2011, dated 2017).
“Also recorded” adds a separate entry of the source.

Legend:
[1] = system: rats; test: 1-choice serial reaction time task, impulsive action (premature responses); format: in vivo, rat; details: 1-choice serial reaction time task, single agent
From the text: FIG. 23 illustrates additional behavioral effects of TAT-3L4F.

[2] = system: 5-HT2CR; test: Cai++ release in 5-HT2CR-CHO cells; format: cell-based
From the text: (§1) The 5-HT2CR:PTEN complex occurs in rat brain regions implicated in palatable food reward. […] These cells have been employed for 5-HT2CR signaling studies. […] Providing 3L4F and fragments thereof disrupt the complex in the cell and result in the lack of co-localization of the molecules by immunohistochemistry or by immunoprecipitation studies. 5-HT2CR and PTEN can be co-immunoprecipitated from brain tissue samples. Additional studies using the split luciferase assay also detect direct coupling of 5-HT2CR with PTEN.
Functional analysis of the complex was investigated using Cai^++ release in 5-HT2CR-CHO cells. […] The studies have shown that the 3L4F peptide enhances Cai^++ release via a 5-HT2CR specific mechanism acting down stream ligand binding.
FIG. 15 compares the efficacy of derivatives 210 and A1 in terms of % 1 nM 5-HT induced Cai^++ release in 5-HT2CR-CHO cells. FIG. 16 compares the efficacy of derivatives 210 and A2 in terms of % 1 nM 5-HT induced Cai^++ Release in 5-HT2CR-CHO cells. FIG. 17 compares the efficacy of derivatives 210 and A3 in terms of % 1 nM 5-HT induced Cai^++ release in 5-HT2CR-CHO cells. FIG. 18 compares the efficacy of derivatives 210 and A4 in terms of % 1 nM 5-HT induced Cai^++ release in 5-HT2CR-CHO cells. FIG. 19 compares the efficacy of derivatives 210 and A5 in terms of % 1 nM 5-HT induced Cai^++ release in 5-HT2CR-CHO cells. FIG. 20 compares the efficacy of derivatives 210 and A6 in terms of % 1 nM 5-HT induced Cai^++ release in 5-HT2CR-CHO cells. FIG. 21 compares the efficacy of derivatives 210 and A8 in terms of % 1 nM 5-HT induced […] release in 5-HT2CR-CHO cells.

[3] = system: 5-HT2CR:PTEN complex; test: in situ localization (immunohistochemistry / immunoprecipitation) of 5-HT2CR:PTEN association in cells; format: cell-based; details: for disrupting activity on 5-HT2CR:PTEN association: summary statement, assay not specified
From the text: as §1
Peptides described herein enhance 5-HT2CR signaling and peptide disruption of the serotonin (5-HT) 5-HT2CR interaction with protein phosphatase and tensin (PTEN). This interaction is functionally important to the 5-HT2CR signalosome.

[4] = system: 5-HT2CR:PTEN interaction; test: split luciferase assay of direct 5-HT2CR:PTEN interaction in live cells; format: cell-based
From the text: In addition split luciferase assays were used to detect direct coupling of 5-HT2CR with PTEN.

[5] = target: T1, 5-HT2AR (Homo sapiens, UniProt P28223); test: Cai++ release in 5-HT2AR-CHO cells; format: cell-based
T1 construct: expressed in transfected cells; host or cells: CHO
T1 sequence (P28223 whole entry): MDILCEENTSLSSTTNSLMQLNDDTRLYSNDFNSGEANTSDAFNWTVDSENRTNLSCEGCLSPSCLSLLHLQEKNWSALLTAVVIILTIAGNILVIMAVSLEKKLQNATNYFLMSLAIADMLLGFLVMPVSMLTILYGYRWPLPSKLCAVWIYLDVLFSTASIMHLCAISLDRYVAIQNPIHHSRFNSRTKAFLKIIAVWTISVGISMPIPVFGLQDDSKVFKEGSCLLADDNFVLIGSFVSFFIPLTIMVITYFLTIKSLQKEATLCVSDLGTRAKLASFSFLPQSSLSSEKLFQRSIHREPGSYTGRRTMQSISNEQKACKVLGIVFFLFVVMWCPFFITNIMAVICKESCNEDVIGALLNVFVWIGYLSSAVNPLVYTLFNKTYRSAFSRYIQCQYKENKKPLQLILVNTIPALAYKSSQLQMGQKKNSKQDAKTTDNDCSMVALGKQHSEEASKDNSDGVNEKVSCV

| Compound | 5-HT (1 nM) induced Cai++ release [2] | disrupting activity on 5-HT2CR:PTEN association [3] | other results |
| --- | --- | --- | --- |
| c1cc2c3c(c1)[C@H]1CCC[C@H]1N3CCNC2 [WAY163909] |  |  | impulsive action (premature responses), agent alone [1]: neither of which have effects on their own |
| PNQDQNAR [derivative 210] | retain 3L4F activity; also recorded: increase | active fragment |  |
| PNQDQNARRRKKKERR [3L4F] | increases | disrupter | WAY163909 induced Cai++ release ([2]; selective orthosteric 5-HT2CR agonist WAY163909): potentiates; 3L4F-enhanced 5-HT induced Cai++ release, effect of 5-HT2CR antagonist ([2]; with 5-HT2CR antagonist): inhibits; association of 5-HT2CR and PTEN ([3]; quantitation of in situ localization studies): disrupts the association; direct 5-HT2CR:PTEN interaction ([4]; NLuc fused to 3rd intracellular loop of 5-HT2CR, CLuc fused to PTEN): disrupts; direct 5-HT2CR:PTEN interaction ([4]; NLuc fused to full length 5-HT2CR): disrupts; 5-HT induced Cai++ release [5]: does not alter |
| QNARRRKK [derivative 212] | less efficacious than 3L4 F | less disrupting activity than the 210 fragment |  |
| RRKKKERR [derivative 214] | less efficacious than 3L4 F | less disrupting activity than the 210 fragment |  |
| V27-R45: 5-HT2CR N-terminus peptide fragment V27-R45 (VSPVAAIVTDIFNTSDGGR) [reference compound] | inactive |  |  |
